In patent US20010018065A1, “Compounds and methods for the treatment of bacterial dysentery using antibiotics and toxin binding oligosaccharide compositions” (priority 1998, published 2001):
Values after ≈ are worked out from the molar mass of the structure shown.

System: E. coli ATCC 25922
Experiment: Minimum inhibitory concentration (NCCLS M7-A2) for reference strain
Type: cell-based
Details: reference strain ATCC #25922; for MIC: Escherichia coli, ATCC25922

| SMILES | MIC | Minimum Inhibitory Concentration |
| --- | --- | --- |
| O=C(O)c1cn(C2CC2)c2cc(N3CCNCC3)c(F)cc2c1=O [Ciprofloxacin] | 0.0384 µg/mL (≈ 0.116 µM) |  |
| C=CC1=C(C(=O)O)N2C(=O)[C@@H](NC(=O)/C(=N\OCC(=O)O)c3csc(N)n3)[C@H]2SC1 [Cefixime] | 0.96 µg/mL (≈ 2.12 µM) |  |
| CO[C@@]12[C@H](COC(N)=O)C3=C(C(=O)C(C)=C(N)C3=O)N1C[C@@H]1N[C@@H]12 [Mitomycin-C] |  | 9.6 µg/mL |
| CN(C)[C@@H]1C(O)=C(C(N)=O)C(=O)[C@@]2(O)C(O)=C3C(=O)c4c(O)cccc4[C@@](C)(O)[C@H]3C[C@@H]12 [Tetracycline] | 1.92 µg/mL (≈ 4.32 µM) |  |
